Source: ChEMBL document CHEMBL2157932, “Synthesis and pharmacological evaluation of carbamic acid 1-phenyl-3-(4-phenyl-piperazine-1-yl)-propyl ester derivatives as new analgesic agents” (Bioorg Med Chem Lett, 2012)
Each block holds one molecule with its values, some of them ahead of it. The source made the active and inactive calls. No cut-off for these calls is given here.

Tests used:
[1] = Neurotoxicity in ip dosed mouse by rotarod test; format: toxicity, organism-based; conditions: in vivo
[2] = Half life in human liver microsomes by LC/MS/MS; format: ADME, Microsome
[3] = Neurotoxicity in po dosed mouse by rotarod test; format: toxicity, organism-based; conditions: in vivo
[4] = tested on: Mus musculus; assay: Analgesic activity in ip dosed mouse assessed as inhibition of acetic acid-induced writhing response administered 0.5 to 1 hr before acetic acid challenge; format: functional
[5] = target: T1, 5-hydroxytryptamine receptor 1A (Rattus norvegicus, UniProt P19327); assay: Displacement of [3H]-8-OH-DPAT from 5HT1A receptor in rat hippocampus; format: tissue-based
T1 sequence (P19327 whole entry): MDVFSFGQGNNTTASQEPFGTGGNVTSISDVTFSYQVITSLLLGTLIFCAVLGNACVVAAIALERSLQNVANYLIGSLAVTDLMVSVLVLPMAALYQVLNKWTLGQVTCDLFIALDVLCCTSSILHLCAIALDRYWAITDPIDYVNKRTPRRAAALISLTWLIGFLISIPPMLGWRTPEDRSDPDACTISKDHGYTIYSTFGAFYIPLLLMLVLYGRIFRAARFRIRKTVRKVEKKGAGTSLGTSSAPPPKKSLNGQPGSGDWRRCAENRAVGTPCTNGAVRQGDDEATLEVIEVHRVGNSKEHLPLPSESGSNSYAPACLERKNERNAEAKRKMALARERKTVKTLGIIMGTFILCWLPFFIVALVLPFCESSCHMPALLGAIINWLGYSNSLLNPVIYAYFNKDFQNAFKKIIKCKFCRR

[6] = target: 5-hydroxytryptamine receptor 2A (Rattus norvegicus, UniProt P14842); assay: Displacement of [3H]-ketanserin from 5HT2A receptor in rat cortical membrane; format: cell membranes
[7] = tested on: Mus musculus; assay: Neurotoxicity in mouse at 100 mg/kg, ip by rotarod test; format: toxicity, organism-based; set-up: dose 100 mg/kg, route intraperitoneal; conditions: in vivo
[8] = tested on: Mus musculus; assay: Analgesic activity in mouse assessed as inhibition of acetic acid-induced writhing response at 10 mg/kg, ip administered 0.5 to 1 hr before acetic acid challenge; format: functional; conditions: route intraperitoneal
[9] = tested on: Mus musculus; assay: Neurotoxicity in mouse at 30 mg/kg, ip by rotarod test; format: toxicity, organism-based; set-up: dose 30 mg/kg, route intraperitoneal; conditions: in vivo
[10] = target: T2, 5-hydroxytryptamine receptor 1A (Rattus norvegicus) (UniProt P19327); assay: Displacement of [3H]-8-OH-DPAT from 5HT1A receptor in rat hippocampus at 1 uM; format: tissue-based
T2 sequence (whole entry): T1 sequence (P19327 whole entry)

[11] = tested on: Mus musculus; assay: Analgesic activity in mouse assessed as inhibition of acetic acid-induced writhing response at 10 mg/kg, po administered 0.5 to 1 hr before acetic acid challenge; format: functional
[12] = tested on: Mus musculus; assay: Neurotoxicity in mouse at 50 mg/kg, ip by rotarod test; format: toxicity, organism-based; set-up: dose 50 mg/kg, route intraperitoneal; conditions: in vivo
[13] = target: 5-hydroxytryptamine receptor 2A (Rattus norvegicus) (UniProt P14842); assay: Displacement of [3H]-ketanserin from 5HT2A receptor in rat cortical membrane at 1 uM; format: cell membranes
[14] = tested on: Mus musculus; assay: Neurotoxicity in mouse at 60 mg/kg, ip by rotarod test; format: toxicity, organism-based; set-up: dose 60 mg/kg, route intraperitoneal; conditions: in vivo
[15] = tested on: Mus musculus; assay: Antinociceptive activity in late phase ip dosed mouse by formalin test; format: functional
[16] = tested on: Mus musculus; assay: Antinociceptive activity in late phase po dosed mouse by formalin test; format: functional
[17] = tested on: Mus musculus; assay: Antinociceptive activity in mouse up to 100 mg/kg, ip by hot plate test; format: functional, organism-based; set-up: dose 100 mg/kg
[18] = tested on: Rattus norvegicus; assay: Antiinflammatory activity in rat persistent inflammatory pain model assessed as inhibition of carrageenan-induced mechanical hyperalgesia at 100 mg/kg, po; format: functional
[19] = tested on: Mus musculus; assay: Analgesic activity in po dosed mouse assessed as inhibition of acetic acid-induced writhing response administered 0.5 to 1 hr before acetic acid challenge; format: functional
[20] = tested on: Mus musculus; assay: Neurotoxicity in mouse at 20 mg/kg, ip by rotarod test; format: toxicity, organism-based; set-up: dose 20 mg/kg, route intraperitoneal; conditions: in vivo

5-hydroxytryptamine receptor 2A (Rattus norvegicus), sequence (P14842 whole entry): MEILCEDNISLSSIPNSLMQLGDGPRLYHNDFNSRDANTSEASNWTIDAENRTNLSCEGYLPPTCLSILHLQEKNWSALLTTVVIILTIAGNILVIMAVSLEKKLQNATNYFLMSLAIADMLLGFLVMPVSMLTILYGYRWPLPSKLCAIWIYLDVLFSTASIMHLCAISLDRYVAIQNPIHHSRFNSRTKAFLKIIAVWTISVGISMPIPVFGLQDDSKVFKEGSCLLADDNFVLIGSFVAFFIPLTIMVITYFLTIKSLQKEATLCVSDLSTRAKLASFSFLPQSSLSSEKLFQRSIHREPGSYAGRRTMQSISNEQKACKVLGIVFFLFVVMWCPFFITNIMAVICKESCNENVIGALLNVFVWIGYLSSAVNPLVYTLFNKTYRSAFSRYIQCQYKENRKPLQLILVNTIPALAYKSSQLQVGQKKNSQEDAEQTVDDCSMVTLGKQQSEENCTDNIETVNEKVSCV
5-hydroxytryptamine receptor 2A, sequence (P14842 whole entry): as above

SMILES: NC(=O)OC(CCN1CCN(c2ccccc2)CC1)c1ccccc1 (racemic)
TD50 [1]: 52.3 mg/kg | half-life [2]: 0.317 h | TD50 [3]: 124 mg/kg | ED50 [4]: 0.49 mg/kg

IC50 [5]: 52500 nM | IC50 [6]: > 100000 nM
SMILES: NC(=O)OC(CCN1CCN(c2ccccc2Cl)CC1)c1ccccc1 (single isomer, unassigned)

SMILES: NC(=O)OC(CCN1CCN(c2cccc(C(F)(F)F)c2)CC1)c1ccccc1 (stereo not given)
Activity [7]: Toxic | inhibition in vivo at 10 mg/kg [8]: 14.6%

SMILES: COc1ccccc1N1CCN(CCC(OC(N)=O)c2ccccc2)CC1 (single isomer, unassigned)
Activity [9]: Toxic | ED50 [4]: 0.67 mg/kg

IC50 [5]: 59.6 nM | IC50 [6]: 92.5 nM
SMILES: Cc1cccc(N2CCN(CCC(OC(N)=O)c3ccccc3)CC2)c1 (single isomer, unassigned)

SMILES: NC(=O)OC(CCN1CCN(c2ccccc2)CC1)c1ccc([N+](=O)[O-])cc1 (single isomer, unassigned)
inhibition [10]: 81.4% | inhibition in vivo at 10 mg/kg [11]: 91.2% | Activity [12]: Toxic | TD50 [3]: 53.4 mg/kg | inhibition [13]: 88% | inhibition in vivo at 10 mg/kg [8]: 100%

SMILES: COc1ccc(N2CCN(CCC(OC(N)=O)c3ccccc3)CC2)c(OC)c1 (single isomer, unassigned)
inhibition in vivo at 10 mg/kg [11]: 19%

SMILES: COc1ccc(N2CCN(CCC(OC(N)=O)c3ccc(Cl)c(C(F)(F)F)c3)CC2)cc1 (single isomer, unassigned)
inhibition in vivo at 10 mg/kg [11]: 46%

SMILES: COc1cc(OC)cc(N2CCN(CCC(OC(N)=O)c3ccccc3)CC2)c1 (single isomer, unassigned)
inhibition in vivo at 10 mg/kg [11]: 13%

SMILES: NC(=O)OC(CCN1CCN(c2cccc(Cl)c2)CC1)c1ccccc1 (stereo not given)
Activity [14]: Toxic | ED50 [4]: 0.57 mg/kg

half-life [2]: 2.48 h
SMILES: NC(=O)OC(CCN1CCN(c2ccc(O)cc2)CC1)c1ccc(F)cc1 (single isomer, unassigned)

SMILES: NC(=O)OC(CCN1CCN(c2ccccc2)CC1)c1cccc([N+](=O)[O-])c1 (single isomer, unassigned)
inhibition [10]: 74.6% | inhibition in vivo at 10 mg/kg [11]: 48% | inhibition [13]: 86.4% | inhibition in vivo at 10 mg/kg [8]: 100%

IC50 [5]: 1280 nM | IC50 [6]: 369 nM
SMILES: Cc1ccc(N2CCN(CCC(OC(N)=O)c3ccccc3)CC2)cc1 (single isomer, unassigned)

SMILES: O=C(c1ccccc1)c1ccc2n1CCC2C(=O)O (stereo not given) [KETOROLAC]
ED50 [15]: 12.9 mg/kg | ED50 [16]: 17.9 mg/kg | Activity [17]: inactive | inhibition in vivo at 100 mg/kg [18]: 36.4%

SMILES: COc1ccc(N2CCN(CCC(OC(N)=O)c3ccccc3)CC2)cc1 (racemic)
IC50 [5]: 1980 nM | inhibition in vivo at 10 mg/kg [11]: 72% | half-life [2]: 2.07 h | TD50 [3]: 122 mg/kg | ED50 [4]: 0.14 mg/kg

SMILES: COc1ccc(N2CCN(CCC(OC(N)=O)c3ccc(Cl)cc3Cl)CC2)cc1 (single isomer, unassigned)
inhibition in vivo at 10 mg/kg [11]: 16%

SMILES: Cc1ccc(C(CCN2CCN(c3ccccc3)CC2)OC(N)=O)cc1 (single isomer, unassigned)
inhibition [10]: 59.6% | inhibition [13]: 85.6% | inhibition in vivo at 10 mg/kg [8]: 100%

SMILES: COc1ccc(N2CCN(CCC(OC(N)=O)c3ccc(Cl)cc3)CC2)cc1 (single isomer, unassigned)
inhibition in vivo at 10 mg/kg [11]: 51%

SMILES: NC(=O)OC(CCN1CCN(c2ccccc2)CC1)c1ccc(Cl)cc1 (single isomer, unassigned)
inhibition [10]: 64.6% | half-life [2]: 0.25 h | ED50 [19]: 2.1 mg/kg | inhibition [13]: 84.6%

SMILES: NC(=O)OC(CCN1CCN(c2ccc([N+](=O)[O-])cc2)CC1)c1ccc(F)cc1 (single isomer, unassigned)
inhibition [10]: 29.6% | inhibition in vivo at 10 mg/kg [11]: 70% | TD50 [3]: 97.8 mg/kg | inhibition [13]: 29.6%

SMILES: CC(C)(C)c1ccc(C(CCN2CCN(c3ccccc3)CC2)OC(N)=O)cc1 (single isomer, unassigned)
inhibition [10]: 44.4% | inhibition in vivo at 10 mg/kg [11]: 62% | inhibition [13]: 98.8%

SMILES: NC(=O)OC(CCN1CCN(c2ccc(F)cc2)CC1)c1ccccc1 (single isomer, unassigned)
IC50 [5]: 10500 nM | inhibition in vivo at 10 mg/kg [11]: 88% | Activity [20]: Toxic | ED50 [4]: 0.55 mg/kg

SMILES: NC(=O)OC(CCN1CCN(c2ccccc2O)CC1)c1ccccc1 (single isomer, unassigned)
inhibition in vivo at 10 mg/kg [11]: 37%
